Laboratory results as given in EP0070803A2, “Antibiotically active aminotriazolylcephalosporin derivatives and their preparation” (CIBA-GEIGY AG, priority 1981, dated 1983).
≈ marks a conversion by molar mass, not a printed value. Structures can show the parent of a compound that is named as a salt. Where two headings read alike, the source gives them in different places.

How the values were obtained:
[1] = test system: Staphylococcus aureus 2999i^+p^+; test: Antibiotic activity in vitro, agar dilution method (MIC); type: cell-based; details: DST agar
[2] = test system: Streptococcus pyogenes Aronson; test: as above; type: cell-based; details: DST agar
Escherichia coli 205 [3] = test: as above; type: cell-based; details: DST agar
[4] = test system: Klebsiella pneumoniae 327; test: as above; type: cell-based; details: DST agar
Serratia marcescens 344 = test: as above; type: cell-based; details: DST agar
Proteus mirabilis 774 = test: as above; type: cell-based; details: DST agar
Proteus rettgeri 856 = test: as above; type: cell-based; details: Providencia rettgeri, DST agar
[5] = test system: Clostridium perfringens 194; test: microbe, parasite or virus in culture; type: cell-based
[6] = test system: Bacteroides fragilis LO 1; test: Antibiotic activity in vitro, agar dilution method (MIC); type: cell-based; details: LO1, DST agar
[7] = test system: Neisseria meningitidis 1316; test: as above; type: cell-based; details: DST agar
[8] = test system: Haemophilus influenzae NCTC 4560; test: as above; type: cell-based; details: DST agar
Escherichia coli 205 [9] = test: Chemotherapeutic activity in vivo against systemic infection in mice (ED50); details: s.c., systemic infection in female SPF MF2 mice
Excerpt: (§1) B. Die chemotherapeutische Wirksamkeit in vivo gegen systemische Infektionen in weiblichen SPF, MF2 Mäusen wurde nach der Methode von Zak., 0., et al., 1979, Drugs Exptl. Clin. Res. 5, 45-59, ermittelt. Die gefundenen ED50-Werte in Milligramm Substanz pro Kilogramm Maus (mg/kg) für eine Anzahl von Mikroorganismen werden für die subcutan (s.c.) applizierten Testverbindungen in der Tabelle 2 angegeben.

[10] = test system: Pseudomonas aeruginosa ATCC 12055; test: Antibiotic activity in vitro, agar dilution method (MIC); type: cell-based; details: ATCC12055, DST agar
[11] = test system: Staphylococcus aureus 10B; test: Chemotherapeutic activity in vivo against systemic infection in mice (ED50); details: systemic infection in female SPF MF2 mice
Excerpt: as §1

Proteus morganii 2359 = test: as above; details: Morganella morganii, sc, systemic infection in female SPF MF2 mice
Excerpt: as §1

[12] = Staphylococcus aureus, read-out: MIC
[13] = Escherichia coli, 205, agar dilution, read-out: MIC
[14] = Klebsiella pneumoniae, 327, agar dilution, read-out: MIC
[15] = Serratia marcescens, 344, agar dilution, read-out: MIC
[16] = Proteus mirabilis, 774, agar dilution, read-out: MIC
[17] = Neisseria meningitidis, 1316, agar dilution, read-out: MIC
[18] = Haemophilus influenzae, NCTC4560, agar dilution, read-out: MIC
[19] = Escherichia coli, 205, sc, read-out: ED50
[20] = Staphylococcus aureus, 10B, sc, read-out: ED50

SMILES	MIC [1, 12] [µg/mL]	MIC [2] [µg/mL]	MIC (Escherichia coli 205 [3]; [13]) [µg/mL]	MIC [4, 14] [µg/mL]	MIC (Serratia marcescens 344; [15]) [µg/mL]	MIC (Proteus mirabilis 774; [16]) [µg/mL]	MIC (Proteus rettgeri 856) [µg/mL]	MIC [5] [µg/mL]	MIC [6] [µg/mL]	MIC [7, 17] [µg/mL]	MIC [8, 18] [µg/mL]	ED50 (Escherichia coli 205 [9]; [19]) [mg/kg]	MIC [10] [µg/mL]	ED50 (Proteus morganii 2359) [mg/kg]	ED50 [11, 20] [mg/kg]	also measured
CO/N=C(\C(=O)N[C@@H]1C(=O)N2C(C(=O)[O-])=C(C[n+]3ccc(C(N)=O)cc3)CS[C@H]12)c1nc(N)n(C)n1 [Testverbindung 4, 7β-[2-(5-Amino-1-methyl-1H-1,2,4-triazol-3-yl)-2-Z-methoxyimino-acetamino]-3-(4-carbamoylpyridiniomethyl)-3-cephem-4-carboxylat]	32 (≈ 62.1 µM)	32 (≈ 62.1 µM)	0.1 (≈ 0.194 µM)	0.1 (≈ 0.194 µM)	0.5 (≈ 0.97 µM)	0.1 (≈ 0.194 µM)	0.02 (≈ 0.0388 µM)	8 (≈ 15.5 µM)	4 (≈ 7.76 µM)	0.5 (≈ 0.97 µM)	2 (≈ 3.88 µM)	2.5				
CO/N=C(\C(=O)N[C@@H]1C(=O)N2C(C(=O)O)=C(COC(C)=O)CS[C@H]12)c1nc(N)n(C)n1 [Beispiel 2, 7β-[2-(5-Amino-1-methyl-1H-1,2,4-triazol-3-yl)-2-Z-methoxyimino-acetamino]-3-acetoxymethyl-3-cephem-4-carbonsäure-hydrochlorid]	8	0.5	0.1	0.1		0.05	0.01	0.5	8		1		128			MIC (Serratia marcescens 344; agar dilution): 1 µg/mL; MIC ([7]; agar dilution): 0,02 µg/ml; ED50 (Escherichia coli 205 [9]): 1 mg/kg; ED50 ([11]; s.c.): 10 mg/kg
CO/N=C(\C(=O)N[C@@H]1C(=O)N2C(C(=O)[O-])=C(C[n+]3ccc(C(N)=O)cc3)CS[C@H]12)c1nc(N=CN(C)C)n(C)n1 [Testverbindung 5]	8 (≈ 14 µM)	0.5 (≈ 0.876 µM)	32 (≈ 56.1 µM)	32 (≈ 56.1 µM)	128 (≈ 224 µM)	32 (≈ 56.1 µM)	8 (≈ 14 µM)	2 (≈ 3.51 µM)	32 (≈ 56.1 µM)	8 (≈ 14 µM)	128 (≈ 224 µM)	> 30	128 (≈ 224 µM)	70	55	
CO/N=C(\C(=O)N[C@@H]1C(=O)N2C(C(=O)O)=C(CSc3nnnn3C)CS[C@H]12)c1nc(N)n(C)n1 [Testverbindung 3, 7β-[2-(5-Amino-1-methyl-1H-1,2,4-triazol-3-yl)-2-Z-methoxyimino-acetamino]-3-(1-methyltetrazol-5-yl-thiomethyl)-3-cephem-4-carbonsäure]	8 (≈ 15.7 µM)	1 (≈ 1.96 µM)	0.2 (≈ 0.393 µM)	0.2 (≈ 0.393 µM)	0.5 (≈ 0.981 µM)	0.2 (≈ 0.393 µM)	0.1 (≈ 0.196 µM)	0.2 (≈ 0.393 µM)	16 (≈ 31.4 µM)	0.5 (≈ 0.981 µM)	8 (≈ 15.7 µM)	1.7	1 (≈ 1.96 µM)	50	28	
CC(=O)OCC1=C(C(=O)O)N2C(=O)[C@@H](NC(=O)Cc3nc(N)n(C)n3)[C@H]2SC1 [Testverbindung 1, 7β-[2-(5-Amino-1-methyl-1H-1,2,4-triazol-3-yl)-acetamino]-3-acetoxymethyl-3-cephem-4-carbonsäure]	8 (≈ 19.5 µM)	1 (≈ 2.44 µM)	32 (≈ 78 µM)	16 (≈ 39 µM)		128 (≈ 312 µM)	32 (≈ 78 µM)	16 (≈ 39 µM)		2 (≈ 4.87 µM)	4 (≈ 9.75 µM)	> 30		> 30		
CO/N=C(\C(=O)N[C@@H]1C(=O)N2C(C(=O)O)=C(COC(C)=O)CS[C@H]12)c1nc(N)n(C)n1 [Testverbindung 2, 7ß-[2-(5-Amino-l-methyl-lH-l,2,4-triazol-3-yl)-2-Z-methoxy-imino-acetamino]-3-acetoxymethyl-3-cephem-4-carbonsäure]														> 30		MIC ([1]; listed as 3): 4 µg/mL (≈ 8.82 µM); MIC (Escherichia coli 205 [3]; agar dilution, listed as 3): 0,05 µg/ml; MIC ([4]; agar dilution, listed as 3): 0,05 µg/ml; MIC (Serratia marcescens 344; agar dilution, listed as 3): 0,1 µg/ml; MIC (Proteus mirabilis 774; agar dilution, listed as 3): 0,1 µg/ml; MIC ([7]; agar dilution, listed as 3): 0,1 µg/ml; MIC ([8]; agar dilution, listed as 3): 0,5 µg/ml; ED50 (Escherichia coli 205 [9]; listed as 3): 0,4 mg/kg; ED50 ([11]; s.c., listed as 3): >30 mg/kg
